Results reported in PubChem BioAssay AID2060625 (Molecular Pharmacology Branch, DTP, NCI, 2025).
Where “and” joins values, the source holds several entries; their conditions need not be identical. Identical values can stand only once.

Tested on: 186277-243-T-J2-PDC spheroids with HUVEC/MSC, viability
Assay: Anticancer human tumor 186277-243-T-J2-PDC patient-derived colon adenocarcinoma cell line growth inhibition [CLK]
Conditions: for viability, T/C: stronger effect = lower value
Method in brief: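 Multi-cell-type spheroids combined patient-derived tumor cells with HUVEC endothelial cells and human mesenchymal stem cells. Paired agents were dosed in half-log steps down from about clinical Cmax, or from 10 microM where Cmax was unknown.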

[1] = curve of first compound, second compound 0.0316 µM
[2] = curve of first compound, second compound 0.1 µM
[3] = curve of first compound, second compound 0.316 µM
[4] = curve of first compound, second compound 1 µM
[5] = curve of first compound, second compound 3.16 µM
[6] = curve of first compound, second compound 10 µM
[7] = second compound 0.0316 µM, first compound 0.0316 µM
[8] = second compound 0.0316 µM, first compound 0.1 µM
[9] = second compound 0.0316 µM, first compound 0.316 µM
[10] = second compound 0.0316 µM, first compound 1 µM
[11] = second compound 0.0316 µM, first compound 3.16 µM
[12] = second compound 0.0316 µM, first compound 10 µM
[13] = second compound 0.1 µM, first compound 0.0316 µM
[14] = second compound 0.1 µM, first compound 0.1 µM
[15] = second compound 0.1 µM, first compound 0.316 µM
[16] = second compound 0.1 µM, first compound 1 µM
[17] = second compound 0.1 µM, first compound 3.16 µM
[18] = second compound 0.1 µM, first compound 10 µM
[19] = second compound 0.316 µM, first compound 0.0316 µM
[20] = second compound 0.316 µM, first compound 0.1 µM
[21] = second compound 0.316 µM, first compound 0.316 µM
[22] = second compound 0.316 µM, first compound 1 µM
[23] = second compound 0.316 µM, first compound 3.16 µM
[24] = second compound 0.316 µM, first compound 10 µM
[25] = second compound 1 µM, first compound 0.0316 µM
[26] = second compound 1 µM, first compound 0.1 µM
[27] = second compound 1 µM, first compound 0.316 µM
[28] = second compound 1 µM, first compound 1 µM
[29] = second compound 1 µM, first compound 3.16 µM
[30] = second compound 1 µM, first compound 10 µM
[31] = second compound 3.16 µM, first compound 0.0316 µM
[32] = second compound 3.16 µM, first compound 0.1 µM
[33] = second compound 3.16 µM, first compound 0.316 µM
[34] = second compound 3.16 µM, first compound 1 µM
[35] = second compound 3.16 µM, first compound 3.16 µM
[36] = second compound 3.16 µM, first compound 10 µM
[37] = second compound 10 µM, first compound 0.0316 µM
[38] = second compound 10 µM, first compound 0.1 µM
[39] = second compound 10 µM, first compound 0.316 µM
[40] = second compound 10 µM, first compound 1 µM
[41] = second compound 10 µM, first compound 3.16 µM
[42] = second compound 10 µM, first compound 10 µM
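Also: compound exposure lasted seven days before readout.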
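For viability, T/C in this document: 100% = DMSO vehicle control wells.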

Q: Which IC50 [1] does the source give for `CCCS(=O)(=O)Nc1ccc(F)c(C(=O)c2c[nH]c3ncc(-c4ccc(Cl)cc4)cc23)c1F` + CN1CCN(c2cc(C(=O)Nc3cc4cc(-c5cnn(C)c5)ccc4cn3)ccn2)CC1 here?
A: > 10000 nM

Q: And the IC50 [2]?
A: > 10000 nM

Q: And the IC50 [3]?
A: < 31.6 nM

Q: And the IC50 [4]?
A: < 31.6 nM

Q: And the IC50 [5]?
A: < 31.6 nM

Q: What about the IC50 [6] of the same molecule?
A: < 31.6 nM

Q: What about the viability, T/C [7] of the same molecule?
A: 109%

Q: And the viability, T/C [8]?
A: 104%

Q: And the viability, T/C [9]?
A: 103%

Q: What about the viability, T/C [10] of the same molecule?
A: 97.4%

Q: What about the viability, T/C [11] of the same molecule?
A: 113%

Q: And the viability, T/C [12]?
A: 89.6%

Q: And the viability, T/C [13]?
A: 87.4%

Q: And the viability, T/C [14]?
A: 82.3%

Q: What about the viability, T/C [15] of the same molecule?
A: 86.7%

Q: And the viability, T/C [16]?
A: 99.4%

Q: What about the viability, T/C [17] of the same molecule?
A: 95.9%

Q: What about the viability, T/C [18] of the same molecule?
A: 69.2%

Q: And the viability, T/C [19]?
A: 30.5%

Q: What about the viability, T/C [20] of the same molecule?
A: 30.9%

Q: And the viability, T/C [21]?
A: 31.8%

Q: And the viability, T/C [22]?
A: 32.1%

Q: What about the viability, T/C [23] of the same molecule?
A: 22.5%

Q: And the viability, T/C [24]?
A: 20.1%

Q: What about the viability, T/C [25] of the same molecule?
A: 0.48%

Q: What about the viability, T/C [26] of the same molecule?
A: 0.83%

Q: And the viability, T/C [27]?
A: 1.17%

Q: What about the viability, T/C [28] of the same molecule?
A: 1.25%

Q: What about the viability, T/C [29] of the same molecule?
A: 0.57%

Q: And the viability, T/C [30]?
A: 0.46%

Q: And the viability, T/C [31]?
A: 1.11%

Q: And the viability, T/C [32]?
A: 1.22%

Q: And the viability, T/C [33]?
A: 2.84%

Q: What about the viability, T/C [34] of the same molecule?
A: 1.64%

Q: And the viability, T/C [35]?
A: 2.61%

Q: And the viability, T/C [36]?
A: 1.65%

Q: What about the viability, T/C [37] of the same molecule?
A: 0.65%

Q: And the viability, T/C [38]?
A: 0.72%

Q: What about the viability, T/C [39] of the same molecule?
A: 1.61%

Q: And the viability, T/C [40]?
A: 0.95%

Q: What about the viability, T/C [41] of the same molecule?
A: 1.27%

Q: What about the viability, T/C [42] of the same molecule?
A: 0.74%

Q: `C=C(F)C(=O)N1CCN(c2nc(OCC3CCCN3C)nc3c2CCN(c2cccc4cccc(Cl)c24)C3)CC1CC#N` (configuration not stated) was tested. Which viability, T/C (compound 0.0316 µM) did it give?
A: 79% and 94.1%

Q: What about the viability, T/C (compound 0.1 µM) of the same molecule?
A: 82.2% and 88.8%

Q: And the viability, T/C (compound 0.316 µM)?
A: 93% and 82.2%

Q: And the viability, T/C (compound 1 µM)?
A: 83.4% and 89.4%

Q: What about the viability, T/C (compound 3.16 µM) of the same molecule?
A: 101% and 109%

Q: What about the IC50 (curve of compound) of the same molecule?
A: 5270 nM and 7510 nM

Q: How did the IC50 [1] turn out when `CC1(C)CCC(CN2CCN(c3ccc(C(=O)NS(=O)(=O)c4ccc(NCC5CCOCC5)c([N+](=O)[O-])c4)c(Oc4cnc5[nH]ccc5c4)c3)CC2)=C(c2ccc(Cl)cc2)C1` + CNC(=O)c1ccc(Nc2nc(OC3CCCC3)c3c(-c4ccc5nc(C)oc5c4)c[nH]c3n2)c(OC)c1 was run?
A: 6100 nM

Q: And the IC50 [2]?
A: 4370 nM

Q: What about the IC50 [3] of the same molecule?
A: 1740 nM

Q: What about the IC50 [4] of the same molecule?
A: < 31.6 nM

Q: What about the IC50 [5] of the same molecule?
A: < 31.6 nM

Q: What about the IC50 [6] of the same molecule?
A: < 31.6 nM

Q: What about the viability, T/C [7] of the same molecule?
A: 110%

Q: And the viability, T/C [8]?
A: 109%

Q: What about the viability, T/C [9] of the same molecule?
A: 102%

Q: And the viability, T/C [10]?
A: 102%

Q: And the viability, T/C [11]?
A: 119%

Q: What about the viability, T/C [12] of the same molecule?
A: 6.08%

Q: And the viability, T/C [13]?
A: 81.6%

Q: And the viability, T/C [14]?
A: 82%

Q: And the viability, T/C [15]?
A: 85.8%

Q: What about the viability, T/C [16] of the same molecule?
A: 80%

Q: What about the viability, T/C [17] of the same molecule?
A: 67.9%

Q: What about the viability, T/C [18] of the same molecule?
A: 4.37%

Q: And the viability, T/C [19]?
A: 53.1%

Q: And the viability, T/C [20]?
A: 57.5%

Q: And the viability, T/C [21]?
A: 58.4%

Q: What about the viability, T/C [22] of the same molecule?
A: 56.8%

Q: And the viability, T/C [23]?
A: 43.2%

Q: And the viability, T/C [24]?
A: 6.45%

Q: And the viability, T/C [25]?
A: 36.1%

Q: What about the viability, T/C [26] of the same molecule?
A: 35.2%

Q: What about the viability, T/C [27] of the same molecule?
A: 37.5%

Q: What about the viability, T/C [28] of the same molecule?
A: 39.9%

Q: What about the viability, T/C [29] of the same molecule?
A: 33.1%

Q: What about the viability, T/C [30] of the same molecule?
A: 4.39%

Q: And the viability, T/C [31]?
A: 35.9%

Q: And the viability, T/C [32]?
A: 34.6%

Q: And the viability, T/C [33]?
A: 35.1%

Q: And the viability, T/C [34]?
A: 37.6%

Q: What about the viability, T/C [35] of the same molecule?
A: 32.1%

Q: And the viability, T/C [36]?
A: 3.97%

Q: What about the viability, T/C [37] of the same molecule?
A: 34.7%

Q: And the viability, T/C [38]?
A: 30.6%

Q: And the viability, T/C [39]?
A: 40.3%

Q: What about the viability, T/C [40] of the same molecule?
A: 36%

Q: And the viability, T/C [41]?
A: 35.9%

Q: What about the viability, T/C [42] of the same molecule?
A: 6.13%

Q: `CC(CO)NC(=O)c1cc(-c2ccc(Cl)cc2)nn(-c2cnn(C)c2)c1=O` (configuration not stated) + CN1CCN(c2cc(C(=O)Nc3cc4cc(-c5cnn(C)c5)ccc4cn3)ccn2)CC1 was tested. Which IC50 [1] did it give?
A: > 10000 nM

Q: What about the IC50 [2] of the same molecule?
A: > 10000 nM

Q: And the IC50 [3]?
A: < 31.6 nM

Q: What about the IC50 [4] of the same molecule?
A: < 31.6 nM

Q: What about the IC50 [5] of the same molecule?
A: < 31.6 nM

Q: What about the IC50 [6] of the same molecule?
A: < 31.6 nM

Q: What about the viability, T/C [7] of the same molecule?
A: 118%

Q: What about the viability, T/C [8] of the same molecule?
A: 111%

Q: And the viability, T/C [9]?
A: 96.7%

Q: And the viability, T/C [10]?
A: 102%

Q: What about the viability, T/C [11] of the same molecule?
A: 106%

Q: And the viability, T/C [12]?
A: 112%

Q: And the viability, T/C [13]?
A: 106%

Q: What about the viability, T/C [14] of the same molecule?
A: 92.2%

Q: And the viability, T/C [15]?
A: 106%

Q: And the viability, T/C [16]?
A: 103%

Q: And the viability, T/C [17]?
A: 107%

Q: And the viability, T/C [18]?
A: 97.3%

Q: And the viability, T/C [19]?
A: 25%

Q: And the viability, T/C [20]?
A: 27.6%

Q: And the viability, T/C [21]?
A: 29.6%

Q: What about the viability, T/C [22] of the same molecule?
A: 30.5%

Q: And the viability, T/C [23]?
A: 25.2%

Q: And the viability, T/C [24]?
A: 35.1%

Q: And the viability, T/C [25]?
A: 0.55%

Q: And the viability, T/C [26]?
A: 0.96%

Q: What about the viability, T/C [27] of the same molecule?
A: 0.66%

Q: What about the viability, T/C [28] of the same molecule?
A: 0.35%

Q: What about the viability, T/C [29] of the same molecule?
A: 0.36%

Q: And the viability, T/C [30]?
A: 0.38%

Q: And the viability, T/C [31]?
A: 0.96%

Q: What about the viability, T/C [32] of the same molecule?
A: 1.12%

Q: What about the viability, T/C [33] of the same molecule?
A: 0.88%

Q: And the viability, T/C [34]?
A: 1.2%

Q: And the viability, T/C [35]?
A: 1.15%

Q: And the viability, T/C [36]?
A: 1.66%

Q: And the viability, T/C [37]?
A: 0.72%

Q: What about the viability, T/C [38] of the same molecule?
A: 0.76%

Q: And the viability, T/C [39]?
A: 0.63%

Q: And the viability, T/C [40]?
A: 0.88%

Q: And the viability, T/C [41]?
A: 0.8%

Q: And the viability, T/C [42]?
A: 0.63%
